Legend:
Format in all cases: cell-based, human
[1] = test system: Sulfiredoxin (Srxn1) promoter; assay: Srxn1-luciferase reporter assay (PMA-dependent activation); conditions: U2oS cells, normalised to Renilla, n=3, p<0.05
Protocol: From this primary screen, we concentrated on the PYC36-like, AP1-inhibitory Phylomers, and selected 14 initial hits. Of these, 7 (TABLE 2 and FIG. 8) were confirmed to inhibit AP1-luciferase activity in a secondary reporter assay normalised to Renilla luciferase expression (FIG. 2). Briefly, Phylomer DNA of the primary hits was re-prepared from the original clones selected for the mini-library (Endo-Free Maxi-Prep, Qiagen), and 5×10^5 U2oS cells were co-transfected with 800 ng DNA comprising AP1-luciferase or Srxn1-luciferase (Papadia et al., 2008) (Firefly), pRL-TK (Renilla) and Phylomer plasmid. Reporter activity/inhibition was calculated by normalizing Firefly activity to Renilla.
As an additional confirmatory experiment, we asked whether these 6 Phylomers specifically regulated expression of a known AP1 target gene by testing their effect on the Sulfiredoxin (Srxn1) promoter, recently established as an AP1-dependent component of the anti-oxidant response mechanism (Papadia et al., 2008). Of the 6 Phylomers tested, 3 inhibited PMA-dependent activation of this promoter: 6G8, 25C3 and 48E6 (FIG. 3a). Importantly, these Phylomers had no effect upon PMA-induced transcription from a control Srxn1 promoter in which the AP1 response elements had been ablated by mutation (FIG. 3b), confirming that their effect on the Srxn1 promoter is AP1-specific.

[2] = test system: Srxn1 promoter containing mutated AP1 response elements; assay: Control Srxn1 promoter reporter with mutated AP1 response elements; conditions: n=3, p>0.05
Protocol: From this primary screen, we concentrated on the PYC36-like, AP1-inhibitory Phylomers, and selected 14 initial hits. […] Reporter activity/inhibition was calculated by normalizing Firefly activity to Renilla.

AP1-luciferase reporter = assay: Primary phenotypic screen: PMA-mediated AP1-driven luciferase reporter in transfected U2oS cells; conditions: U2oS cells co-transfected with Phylomer plasmid, PMA 100 nM, read 24 hours later
Protocol: The mini-library of 3120 individual transfection-ready plasmids was used in a microtitre plate-based transfection assay system (ie, and array-based format) in the U2oS cell line, and the effects of the Phyomers expressed from this mini-library were assessed upon PMA-mediated AP1-driven luciferase reporter expression. The previously identified Phylomer PYC36 ([…] SEQ ID NO: 5)—found by reverse target-based yeast 2-hybrid screening against c-Jun bait, and known to affect AP1-dependent transcription (Mead et al., 2010 J. Neurochem, 112: 258-270)—was used as positive control.
Briefly, in triplicate plates, 1×10^5 U2oS cells were plated overnight and co-transfected with 100 ng of both AP1-luciferase reporter (Stratagene) and either an individual Phylomer construct from the mini-libary, or positive control (pcDNA3.1/PYC36) or vector control (pcDNA3.1/nV5-DEST-GusB). PMA (100 nM) was used to induce AP1-dependent luciferase expression 6 hours post-transfection, and luciferase activity was measured 24 hours later (SteadlyGlo, Promega).

| Substance | PMA-dependent activation of the Srxn1 promoter (Srxn1-luciferase activity) [1] | PMA-induced transcription from control Srxn1 promoter with AP1 response elements ablated by mutation [2] | AP1-dependent luciferase activity (transcription) (AP1-luciferase reporter) |
| --- | --- | --- | --- |
| 6G8: AP1-inhibitory Phylomer RAEKCGKLF (SEQ ID NO: 10) (Protein fragment of unknown organism) [Phylomer 6G8] | inhibited | no effect | – |
| PYC36: previously identified Phylomer GLQGRRRQGYQSIKP (SEQ ID NO: 5), positive control known to affect AP1-dependent transcription (Protein fragment of unknown organism) [reference compound] | significant inhibition | – | inhibited transcription |
| 48E6: AP1-inhibitory Phylomer HSDRTADI (SEQ ID NO: 18) (Protein fragment of unknown organism) [Phylomer 48E6] | inhibited | no effect | – |

— patent US20190204338A1, “Methods for the Characterisation of Interaction Sites on Target Proteins” (Phylogica Limited, priority 2012, published 2019)
